Counter-ions that a name gives are not always drawn. Like-named read-outs stand apart in the source and are kept apart here.
Experiments:
[1] = Human hepatocytes metabolic stability assay; assay type: in vitro ADME; conditions: both sexes, cryopreserved hepatocytes; human hepatocytes 1×10^6 viable cells/mL
Experimental: (§1) Rat/Human Hepatocytes Metabolic Stability Assay
(§2) 2) 30 mM stock solutions of test compounds were prepared in DMSO. Thawing medium and supplement incubation medium (serum-free) were placed in a 37° C. water bath for at least 15 minutes prior to use. Stock solutions were diluted to 500 μM by combining 295 μL acetonitrile and 5 μL of 30 mM stock solution. 3) Vials of cryopreserved hepatocytes were removed from storage, ensured that vials remain at cryogenic temperatures. The pressure was removed by loosening and re-tightening the cap. The vials were thawed in a 37° C. water bath with gently shaking. Vials were kept in water bath until all ice crystals had dissolved and were no longer visible. Vials were sprayed with 70% ethanol before being transferred to a biosafety cabinet. And then the contents were poured into the 50 mL thawing medium conical tube. Vials were centrifuged at 100 g for 10 minutes at room temperature. Thawing medium was aspirated and hepatocytes were resuspended with serum-free incubation medium to yield ˜1.5×10^6 cells/mL. 4) Cell viability and density were counted using a Trypan Blue exclusion, and then cells were diluted with serum-free incubation medium to a working cell density of 1×10^6 viable cells/ml. 5) A portion of the hepatocytes at 1×10^6 viable cells/mL was boiled for 10 min prior to adding to the plate as negative control to eliminate the enzymatic activity so that little or no substrate turnover should be observed. The inactivated hepatocytes were used to prepare negative samples, which were used to exclude the misleading factor that resulted from instability of chemical itself 6) Aliquots of 247.5 μL hepatocytes were dispensed into each well of a 96-well non-coated plate. The plate was placed in the incubator on an orbital shaker at 500 rpm for approximately 10 minutes. 7) Aliquots of 2.5 μL of the 500 μM test compounds were added into respective wells of the non-coated 96-well plate to start the reaction. This assay was performed in duplicate. The plate was incubated in the incubator on an orbital shaker at 500 rpm for the designed time points. […]

[2] = Rat liver S9 fractions metabolic stability assay; conditions: both, pooled liver S9 fractions
[3] = both, human, pooled liver S9 fractions
[4] = Rat hepatocytes metabolic stability assay; assay type: in vitro ADME; conditions: male, cryopreserved hepatocytes; rat hepatocytes 1×10^6 viable cells/mL
Experimental: as §1, §2

[5] = background statement; cited from earlier work
[6] = Dog pharmacokinetic study; assay type: in vivo, male Beagle dogs; conditions: male, Beagle, plasma, IV
Source text: For dog pharmacokinetic studies, male Beagle dogs were housed individually. Dogs in oral administration groups were fasted overnight before use but with free access to water supply. Dogs in IV groups have free access to food and water. […]

[7] = background statement; cited from earlier work; remark: listed apart in the source
[8] = Rat pharmacokinetic study; conditions: male, Sprague-Dawley, plasma, 50 mg/kg

SMILES	half-life at 5 μM [1] [min]	half-life at 5 μM [2] [min]	half-life at 5 μM [3] [min]	half-life at 5 μM [4] [min]	also measured
CC(=O)N[C@H](C(=O)OCCCC(=O)O)C(C)C [Compound 67, (S)-4-(2-acetamido-3-methylbutanoyloxy)butanoic acid]	220	74.2	83.2	131	–
Cl.N[C@@H](Cc1ccccc1)C(=O)OCCCC(=O)O [hydrochloride salt of Compound 57, (S)-4-(2-amino-3-phenylpropanoyloxy)butanoic acid hydrochloride]	–	2.48	2.15	–	–
CC(OC(=O)OCCCC(=O)O)OC(=O)c1ccccc1 (stereo not shown) [Compound 89, 4-(1-(benzoyloxy)ethoxycarbonyloxy)butanoic Acid]	–	17.5	10.5	–	–
CC(=O)NCC(=O)OCCCC(=O)O [Compound 66, 4-(2-acetamidoacetoxy)butanoic Acid]	24.9	8	9.21	16.7	–
CC(C)[C@H](N)C(=O)OCCCC(=O)O [Compound 58, (S)-4-(2-amino-3-methylbutanoyloxy)butanoic acid]	160	–	–	46.7	–
CC(C)C(=O)NCC(=O)OCCCC(=O)O [Compound 64, 4-(2-isobutyramidoacetoxy)butanoic acid]	–	62.7	58	–	–
O=C(O)CCCO [GHB sodium salt]	–	–	–	–	reduction of the total number of cataplexy episodes [5]: ~70%; AUC(0-t) ([6]; GHB sodium salt 20 mg/kg): 35700 ng·h/mL; bioavailability ([6]; GHB sodium salt 20 mg/kg (reference), read-out: Bioavailability F (%)): 100%; plasma half-life (t1/2) [7]: < 60 min; AUC(0-t) ([8]; iv): 25900 ng·h/mL; bioavailability ([8]; iv): 100%; AUC(0-t) ([8]; po): 6700 ng·h/mL; Cmax ([8]; po): 7600 ng/mL; Tmax ([8]; po): 17 min; bioavailability ([8]; po): 26%
O=C(O)CCCOC(=O)Oc1ccccc1 [Compound 32, 4-(phenoxycarbonyloxy)butanoic acid]	–	8.5	40.4	–	–
